PMC12731105, “Design and Synthesis of New Quinoxaline Analogs to Regenerate Sensory Auditory Hair Cells” (Cells, 2025)

Tests used:
[1] = tested on: zebrafish neuromast SCs; test: EdU proliferation assay in zebrafish neuromasts; format: in vivo, zebrafish (Danio rerio); details: p < 0.05; for Number of proliferating (EdU-positive) cells per neuromast vs control: zebrafish, 50–300 μg/mL, 24 h post-treatment
Experimental: (§1) In vitro cell proliferation effects of all ten initial compounds (Figure 1A,B) were tested on HEI-OC1, Neuro-2A and HT-1080 cells by TACS® 3-(4,5-dimethylthiazol-2-yl)-2,5-diphenyltetrazolium bromide (MTT) Cell Proliferation Assay (R&D Systems, Minneapolis, MN, USA, 4890-025-K), following the manufacturer’s protocol. Absorbance was measured with SpectraMax® M Series Multi-Mode Microplate Reader with Soft Max Pro 7.2 GxP Software (Molecular Devices, Sunnyvale, CA, USA), and the average OD in control cells was taken as 100% of viability. Upon selecting the most viable compounds (Qx-294 and Qx-301), we proceeded with in vivo experiments. For zebrafish treatment, animals were incubated for varied times with different concentrations (50, 100, 150, 200, 250, and 300 μg/mL) of Qx-294 or Qx-301 diluted in swimming (E3) media or administered via IP injections. Mice treatment followed the same procedures as described in [18]. Following treatment, animals or tissue samples were incubated in Click-it EdU or Click-it Plus TUNEL kits (Thermo Scientific, Waltham, MA, USA), following the manufacturer’s instructions to label proliferating and apoptotic cells, respectively.
Cell numbers in mouse cochleae or fish, as well as fish neuromast morphologies, were evaluated in 25 zebrafish per drug and treatment group across three experimental runs. […] Images were analyzed at 200X magnification, obtained from different neuromasts and cochlear regions (apex, middle, and base). HCs were quantified in the mouse OC by counting M7a-positive cells, with HC identity further confirmed by phalloidin-labeled stereocilia. Apoptosis and cell proliferation events, on the other hand, were quantified by counting TUNEL- and EdU-positive cells, respectively. […] The number of HCs (IHCs and OHCs) is expressed as units per 200 μm. […] IHCs and OHCs were counted on reconstructed confocal stacks using NIH ImageJ v1.8.0 software. […] Reliability statistics were calculated in SPSS v22.0. […] Fluorescence incorporation following treatment with FM1-43 was quantified according to [19] using ImageJ. […]

[2] = tested on: mechanotransduction channel activity of mouse cochlear HCs; test: FM1-43 uptake in mouse cochlear HCs; format: in vivo; details: mice, 24, 48 and 72 h after injection
Experimental: The styryl pyridinium dye FM1-43 provides an optical measure of mechanotransduction channel function and, therefore, was used as a proxy for the viability of the neuromast cells treated with QX-294 or QX-301, as well as indirect information on the functional capability of newly formed HCs. FM1-43FX (Thermo Scientific, Waltham, MA, USA) uptake experiments in zebrafish were performed as previously described. Zebrafish were incubated with E3 alone (control) or in the presence of Qx-294 or Qx-301, both at 300 μM, for 7 h and then immediately exposed to 3 μM FM1-43FX for 40 s. Alternatively, animals were transferred to a fresh E3 solution for 1 h and then exposed to the dye. For mouse treatment, 24, 48, and 72 h after animals were injected with […] Qx-294 or Qx-301, their cochleae were dissected, transiently exposed to FM1-43 FX dye (1 mg/mL) for 45 s, and then fixed in 4% PFA. All animals were P28 at completion of the treatment. Fluorescence incorporated was quantified according to [19] using ImageJ (ImageJ2 1.54r).

[3] = tested on: zebrafish neuromast cells; test: TUNEL assay in zebrafish neuromasts; format: in vivo, zebrafish (Danio rerio); details: 6 h incubation, any concentration tested
Experimental: Absorbance was measured with SpectraMax® M Series Multi-Mode Microplate Reader with Soft Max Pro 7.2 GxP Software (Molecular Devices, Sunnyvale, CA, USA), and the average OD in control cells was taken as 100% of viability. […] Mice treatment followed the same procedures as described in [18]. Following treatment, animals or tissue samples were incubated in Click-it EdU or Click-it Plus TUNEL kits (Thermo Scientific, Waltham, MA, USA), following the manufacturer’s instructions to label proliferating and apoptotic cells, respectively.

[4] = tested on: HT-1080; test: TACS MTT cell proliferation / metabolic activity assay in HT-1080; format: cell-based, human; details: HT-1080, 0.1 to 100 μM
Experimental: HEI-OC1 cells derived from the mouse OC (kindly provided by Dr. F. Kalinec) were cultured under permissive conditions (33 °C, 10% CO2) as described in [22]. Additionally, we assessed the activity of Qx-derived compounds in the mouse neuroblastoma cell line, Neuro-2A, and the human fibrosarcoma HT-1080 (ATCC, Manassas, VA, USA) following the standard cell culture guidelines provided by the vendor.
as §1

[5] = tested on: mouse organ of Corti HCs; test: M7a immunolabeling and HC counts in the mouse organ of Corti; format: in vivo; details: mice, single IP 300 mg/kg; for OHC and IHC numbers vs control, 48–72 h: p < 0.05; for Supernumerary M7a-positive cells vs control, 24 h: 24 h post-treatment; for HC numbers in the apex: apical turn
Experimental: C57BL/6J male and female mice between postnatal day 24 and 30 P-24-30) were randomized into control and experimental groups (9 mice per group per compound), with each experimental group receiving a single intraperitoneal (IP) injection of Qx-294 or Qx-301 at a dose of 300 mg/kg body weight, dissolved in dimethyl sulfoxide (DMSO). Controls consisted of treatment with DMSO alone (vehicle). A total of 90 adult wild-type C57/BL6 mice were used in this study. Based on the analysis, animals were examined at various times following treatment as described below.
Cochlear dissection in mice and immunofluorescence experiments on zebrafish neuromasts and mouse cochleae were performed as previously described. The antibody and labeling kits used in this study included Otoferlin (Developmental Studies Hybridoma Bank, Iowa City, IA, USA, HCS-1), GFP (Novus Biologicals, NB100-1614), and rabbit anti-myosin VIIa (M7a) (Thermo Scientific, Waltham, MA, USA, PA1-936). Species-specific Alexa Fluor-conjugated secondary antibodies were used for detection. Phalloidin conjugated to Alexa 488 (Thermo Scientific, Waltham, MA, USA, O7466) and DAPI were used for labeling stereocilia and the nucleus, respectively.
Cell numbers in mouse cochleae or fish, as well as fish neuromast morphologies, were evaluated in 25 zebrafish per drug and treatment group across three experimental runs. For mouse analyses, 18 cochleae (from 9 mice) per treatment and three experimental repetitions were examined. Images were analyzed at 200X magnification, obtained from different neuromasts and cochlear regions (apex, middle, and base). HCs were quantified in the mouse OC by counting M7a-positive cells, with HC identity further confirmed by phalloidin-labeled stereocilia. Apoptosis and cell proliferation events, on the other hand, were quantified by counting TUNEL- and EdU-positive cells, respectively. Counts were obtained from three randomly selected microscopic fields for each cochlear region, covering at least 1200 μm in total. The number of HCs (IHCs and OHCs) is expressed as units per 200 μm. Cell counting was performed in a double-blind and unbiased manner. A laboratory member conducted the experiments, while another person, who was unaware of the treatment groups to which the cochlea belonged, performed the cell counts. IHCs and OHCs were counted on reconstructed confocal stacks using NIH ImageJ v1.8.0 software. The presence of an HC was defined as an intact, spherical nucleus located in the basal half of an M7a-positive cell. The same person who performed the initial counts recounted a select group of cochleae to determine an intra-rater reliability measure. We used intra-class correlations (ICC) to assess the reliability of the data sets. Reliability statistics were calculated in SPSS v22.0. We used an intra-class correlation coefficient of ≥0.7 to measure strong absolute agreement between the two sets of HC counts being compared. Statistical comparisons between animal groups and treatments were performed using Two-Way ANOVA or Kruskal–Wallis test with post hoc Bonferroni correction for multiple comparisons. Values are presented as ± standard deviation (SD) of the mean. Fluorescence incorporation following treatment with FM1-43 was quantified according to [19] using ImageJ. An unpaired T-test was used to compare the means between treatment groups. p < 0.05 was considered significant. Qx treatments were compared to vehicle-only (control) animals.

Row | SMILES | Number of proliferating (EdU-positive) cells per neuromast vs control [1] | FM1-43 fluorescence intensity incorporated by the cochleae vs control [2] | Apoptosis (TUNEL) in neuromasts [3] | Proliferative state across all tested concentrations [4] | OHC and IHC numbers vs control, 48–72 h [5] | Supernumerary M7a-positive cells vs control, 24 h [5] | HC numbers in the apex [5] | Number of EdU-positive SCs compared between the two compounds ([1]; zebrafish neuromasts, Two-Way ANOVA with Bonferroni correction)
1 | c1ccc2nc(N3CCOCC3)cnc2c1 [Qx-294, 2-(morpholine)-quinoxaline] | significantly higher number of proliferating cells than the control groups | did not show any significant differences from the control samples | no signs of apoptosis | modest yet active proliferative state | significant increases in both OHC and IHC numbers | not statistically significant | variable, non-significant trend towards more HCs | 
2 | c1ccc2nc(N3CCCC3)cnc2c1 [Qx-301, 2-(pyrrolidine)-quinoxaline] | significantly higher number of proliferating cells than the control groups | did not show any significant differences from the control samples | no signs of apoptosis | modest yet active proliferative state | significant increases in both OHC and IHC numbers | not statistically significant | consistent, significant increase in apical HCs | significantly higher for Qx-301- than for Qx-294-treated neuromasts
